This note sets out measurements from patent publication US9084792B2 (Zhejiang Charioteer Pharmaceutical Co., Ltd., priority 2009, dated 2015).

Each structure is given as a SMILES string.

Data set [1] is described as follows: thermal decomposition point. It is filed as physicochemical. The method, then: (1) It has the property required for large-scale preparation of drugs: for example, it has thermal decomposition point of over 250° C., and good fluidity and bulk density, which are in favor of drug preparation and industrial production on a large scale.
Data set [2] in a line: stability test of crystalline form on storage. It is filed as physicochemical. The conditions noted are these: room temperature, relative humidity of less than 50%. The source says:
(2) It has good stability of crystalline form. […] It can be stored in the dark, cool and dry place for a long time.

Turning to `Nc1nc2c(ncn2COCCO)c(=O)[nH]1.Nc1nc2c(ncn2COCCO)c(=O)[nH]1.Nc1nc2c(ncn2COCCO)c(=O)[nH]1.O.O` [acyclovir 2/3 hydrate], in data set [1], the thermal decomposition point entry was “over 250 °C”. Moreover, in data set [2], the storage time result is on record as “more than one year”. In addition, in data set [2] (more than one year), the “content during the storage time” value is reported as “the content does not reduce” and the “crystalline form during the storage time” value is listed as “the crystalline form remains the same”.
